Measured values published in BindingDB's records for doi:10.3109/14756360903213481 (Brno University of Technology, 2010).

How the values were obtained:
[1] = biological target: Acetylcholinesterase (Electrophorus electricus, UniProt O42275); assay: Acetylcholinesterase Inhibition Assay; details: pH 8; 30 °C
Procedure: (§1) The assay was carried out according to the Ellman method [Ellman et al., Biochem. Pharmacol., 7:88-95], optimized for 96-well microplates using a Tecan Sunrise™ absorbance reader. […] For the blank, 50 μL of 0.26 U mL^−1 AChE was replaced by the same volume of 0.1 M phosphate buffer pH 8.0. In a typical assay, solutions of AChE, DTNB, and the compound to be tested, as well as the phosphate buffer, were mixed and incubated for 30 min at 30°C. Next, the reaction was started by the addition of ATCI solution. […] Reaction velocities were determined from the slopes of the linear portions of the graphs of time versus concentration of 5-thio-2-nitrobenzoate. All assays were done in triplicate.

[2] = biological target: Carboxylic ester hydrolase (Equus caballus, UniProt Q9N1N9); assay: Acetylcholinesterase Inhibition Assay; details: pH 8; 30 °C
Carboxylic ester hydrolase, sequence (Q9N1N9 whole entry): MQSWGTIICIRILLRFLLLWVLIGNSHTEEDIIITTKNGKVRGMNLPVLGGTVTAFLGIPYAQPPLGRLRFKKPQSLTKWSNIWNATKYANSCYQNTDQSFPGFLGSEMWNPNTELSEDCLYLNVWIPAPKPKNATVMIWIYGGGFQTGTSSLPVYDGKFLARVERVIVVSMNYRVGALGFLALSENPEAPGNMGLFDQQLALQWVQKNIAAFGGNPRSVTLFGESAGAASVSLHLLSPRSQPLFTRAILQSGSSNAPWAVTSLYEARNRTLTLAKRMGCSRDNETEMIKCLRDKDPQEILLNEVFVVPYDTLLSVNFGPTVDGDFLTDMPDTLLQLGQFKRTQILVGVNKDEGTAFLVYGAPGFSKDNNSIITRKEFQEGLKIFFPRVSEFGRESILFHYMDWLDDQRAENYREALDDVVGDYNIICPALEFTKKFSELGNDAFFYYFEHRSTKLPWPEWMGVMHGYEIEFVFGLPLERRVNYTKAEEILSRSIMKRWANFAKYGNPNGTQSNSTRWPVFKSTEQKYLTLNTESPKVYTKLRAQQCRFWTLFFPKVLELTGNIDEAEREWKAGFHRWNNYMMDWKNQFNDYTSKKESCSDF
Procedure: as §1

Acetylcholinesterase, sequence (O42275 whole entry): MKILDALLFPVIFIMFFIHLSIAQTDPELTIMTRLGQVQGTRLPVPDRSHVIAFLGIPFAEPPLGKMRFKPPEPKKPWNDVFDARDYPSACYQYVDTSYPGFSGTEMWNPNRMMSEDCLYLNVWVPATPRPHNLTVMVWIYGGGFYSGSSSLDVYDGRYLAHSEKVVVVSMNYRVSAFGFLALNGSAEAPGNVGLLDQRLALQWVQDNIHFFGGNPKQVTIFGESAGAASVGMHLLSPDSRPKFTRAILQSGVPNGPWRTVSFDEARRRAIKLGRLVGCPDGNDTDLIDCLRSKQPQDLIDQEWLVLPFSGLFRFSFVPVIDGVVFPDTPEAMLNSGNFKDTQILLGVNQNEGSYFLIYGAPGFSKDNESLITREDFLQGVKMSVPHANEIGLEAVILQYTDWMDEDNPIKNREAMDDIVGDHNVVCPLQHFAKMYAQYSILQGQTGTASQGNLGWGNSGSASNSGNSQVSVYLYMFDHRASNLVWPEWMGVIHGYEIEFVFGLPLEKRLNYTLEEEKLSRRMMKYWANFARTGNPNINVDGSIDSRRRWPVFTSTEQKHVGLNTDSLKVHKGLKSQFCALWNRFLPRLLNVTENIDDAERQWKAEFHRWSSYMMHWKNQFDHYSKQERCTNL

SMILES | IC50 [1] [µM] | IC50 [2] [µM]
O=C1C(Cc2ccc(O)cc2)=C(Cc2ccc(O)cc2)C(=O)C1(c1ccc(O)cc1)C1(c2ccc(O)cc2)C(=O)C(Cc2ccc(O)cc2)=C(Cc2ccc(O)cc2)C1=O [Nostotrebin 6] | 5.5 | 6.8
COc1ccc2c3c1O[C@H]1C[C@@H](O)C=C[C@@]31CCN(C)C2 [galantamine] |  | 23.3
